# Assay results: patent US11530205B2, “GLP-1 receptor modulators” (RECEPTOS LLC, priority 2017, dated 2022)
# Target: T1, Human GLP-1R (Homo sapiens, UniProt P43220)
# T1 construct: expressed in transfected cells; host or cells: CRE-bla CHO-K1 (Chinese hamster ovary) cells
# Assay: EC20 GLP-1(9-36) PAM cAMP assay: dose response of compound in the presence of fixed concentration of GLP-1(9-36)
# Type: cell-based
# Conditions: Human GLP-1R CRE-bla CHO-K1 cells, 60 nM GLP-1(9-36), 30 minutes at 37° C.
# Protocol: EC20GLP-1(9-36) PAM cAMP Assay: Dose Response of Compound in the Presence of Fixed Concentration of GLP-1 (9-36)
# Human GLP-1R CRE-bla CHO-K1 cells were cultured in growth medium (DMEM-High glucose, 10% dialyzed FBS, 0.1 mM NEAA, 25 mM Hepes, 100 U/mL penicillin/100 μg/mL streptomycin, 5 μg/mL Blasticidin, 600 μg/mL Hygromycin), trypsinized and plated in suspension into 384-well white flat bottom plates at 5000 cells/well in 12 μL assay buffer (Hank's Balanced Salt Solution, 10 mM Hepes, 0.1% BSA, pH 7.4). Each compound at a 5× concentration was diluted to a final concentration range of 10 to 0.01 μM (11 points) in assay buffer containing 1.5 mM IBMX and 4% DMSO. GLP-1(9-36) was diluted from 4.2 μM (30 x) to a final assay concentration of 60 nM in assay buffer containing 1.5 mM IBMX and 4% DMSO. Each compound concentration (5×) was added (3 μL), followed by 0.5 μL of GLP-1(9-36) and cells incubated for 30 minutes at 37° C. The peptide was added to the wells using siliconized tips. The reaction was stopped and levels of cAMP were quantified using the DiscoverX HitHunter cAMP kit according to the manufacturer's instructions and luminescence was detected using a SpectraMax M5 Multi-Mode Microplate reader. Luminescence was converted to total cAMP using a cAMP standard curve and data were analyzed by non-linear regression to determine the EC50 and Emax for each compound.
# T1 sequence (P43220 24-463): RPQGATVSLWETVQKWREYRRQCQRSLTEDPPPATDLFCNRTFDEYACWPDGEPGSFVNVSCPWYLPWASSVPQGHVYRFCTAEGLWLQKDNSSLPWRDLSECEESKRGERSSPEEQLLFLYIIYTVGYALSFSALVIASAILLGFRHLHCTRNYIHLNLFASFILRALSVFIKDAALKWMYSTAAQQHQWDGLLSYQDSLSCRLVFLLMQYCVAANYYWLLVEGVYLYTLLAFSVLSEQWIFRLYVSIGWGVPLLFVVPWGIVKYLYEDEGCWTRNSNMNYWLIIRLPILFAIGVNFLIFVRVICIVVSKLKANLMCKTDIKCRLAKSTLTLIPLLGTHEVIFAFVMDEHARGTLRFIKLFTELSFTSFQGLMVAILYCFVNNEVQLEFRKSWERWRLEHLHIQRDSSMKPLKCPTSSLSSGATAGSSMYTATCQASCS
row,SMILES,EC50 [nM]
1,CC[C@H]1CC[C@H](C2CC=C(c3cnc(-c4ccc(CN(CC(=O)N5CC[C@H](C(=O)O)C5)C(=O)c5ccc(NC(=O)Cc6ccc(OC)cc6C(F)(F)F)cc5)cc4)nc3)CC2)CC1 (stereo partly drawn) [Compound 15],< 800
2,COc1ccc(CC(=O)Nc2ccc(C(=O)N(CC(=O)O)Cc3ccc(-c4ncc(C5=CCC(C(C)(C)C)CC5)cn4)cc3)cc2)c(C(F)(F)F)c1 (stereo not drawn) [Compound 77],2500 to 5000
3,COc1ccc(CC(=O)Nc2ccc(C(=O)N(CC(=O)O)Cc3ccc(-c4cnc(C5=CCC(C(C)C)CC5)cn4)cc3)cc2)cc1 (stereo not drawn) [Compound 88],800 to 2500
4,CC[C@H]1CC[C@H](C2CC=C(c3cnc(-c4ccc(CN(CC(=O)O)C(=O)c5ccc(NC(=O)CCc6ccc(OC)cc6)cc5)cc4)nc3)CC2)CC1 (stereo partly drawn) [Compound 93],< 800
5,CC[C@H]1CC[C@@H]([C@@H]2CC=C(c3cnc(-c4ccc(CN(CC(=O)O)C(=O)CNC(=O)Cc5ccc(OC)cc5)cc4)nc3)CC2)CC1 [Compound 118],800 to 2500
6,CC[C@H]1CC[C@H](C2CC=C(c3cnc(-c4ccc(CN(CC(=O)O)C(=O)CCC(=O)CN5c6cccc7cccc(c67)S5(=O)=O)cc4)nc3)CC2)CC1 (stereo partly drawn) [Compound 127],< 800
